# The source made the active and inactive calls.
# Legend:
# [1] = molecular target: Oxysterols receptor LXR-beta (Homo sapiens, UniProt P55055); assay: LXR agonists, Gal4 luciferase reporter, dose response, counter-screen for ssDAF-12 agonist project, cell-based, luminescence, HEK293, S. stercoralis campaign (AID 720737); assay type: functional; settings: read-out: IC50 (the source's name)
# [2] = Luminescence-based cell-based high throughput dose response assay to identify activators of the DAF-12 from the parasite S. stercoralis (ssDAF-12).; assay type: functional
# [3] = molecular target: T1, Corticotropin-releasing factor receptor 2/Corticotropin-releasing factor-binding protein (Homo sapiens, UniProt P24387+Q13324); assay: activators of CRF receptor 2 with binding protein – uHTS hits, confirmation (AID 602473); assay type: functional; settings: read-out: EC50_Mean
# T1 sequence (Q13324 whole entry): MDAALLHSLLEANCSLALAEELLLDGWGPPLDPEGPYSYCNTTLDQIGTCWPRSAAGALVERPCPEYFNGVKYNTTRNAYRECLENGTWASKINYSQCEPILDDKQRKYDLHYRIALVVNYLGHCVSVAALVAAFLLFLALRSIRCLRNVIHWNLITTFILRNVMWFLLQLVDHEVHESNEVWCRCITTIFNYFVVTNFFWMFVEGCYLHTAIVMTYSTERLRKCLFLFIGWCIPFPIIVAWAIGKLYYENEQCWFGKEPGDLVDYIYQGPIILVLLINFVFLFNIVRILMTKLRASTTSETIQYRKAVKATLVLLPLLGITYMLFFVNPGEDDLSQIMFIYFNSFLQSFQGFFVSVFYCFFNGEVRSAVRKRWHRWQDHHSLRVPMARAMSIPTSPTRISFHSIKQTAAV
# T1 sequence (P24387 whole entry): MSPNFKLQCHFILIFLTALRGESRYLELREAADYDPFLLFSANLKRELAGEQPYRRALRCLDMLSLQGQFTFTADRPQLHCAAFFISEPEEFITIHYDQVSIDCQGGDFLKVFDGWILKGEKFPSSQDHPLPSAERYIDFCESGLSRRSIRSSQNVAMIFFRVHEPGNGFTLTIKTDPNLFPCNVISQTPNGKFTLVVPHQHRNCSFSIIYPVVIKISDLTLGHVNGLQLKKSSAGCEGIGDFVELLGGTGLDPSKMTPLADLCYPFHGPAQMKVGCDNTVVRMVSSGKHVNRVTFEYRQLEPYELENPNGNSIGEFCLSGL
# [4] = molecular target: T2, Histone-lysine N-methyltransferase NSD2 (Homo sapiens, UniProt O96028); assay type: biochemical
# T2 sequence (O96028 whole entry): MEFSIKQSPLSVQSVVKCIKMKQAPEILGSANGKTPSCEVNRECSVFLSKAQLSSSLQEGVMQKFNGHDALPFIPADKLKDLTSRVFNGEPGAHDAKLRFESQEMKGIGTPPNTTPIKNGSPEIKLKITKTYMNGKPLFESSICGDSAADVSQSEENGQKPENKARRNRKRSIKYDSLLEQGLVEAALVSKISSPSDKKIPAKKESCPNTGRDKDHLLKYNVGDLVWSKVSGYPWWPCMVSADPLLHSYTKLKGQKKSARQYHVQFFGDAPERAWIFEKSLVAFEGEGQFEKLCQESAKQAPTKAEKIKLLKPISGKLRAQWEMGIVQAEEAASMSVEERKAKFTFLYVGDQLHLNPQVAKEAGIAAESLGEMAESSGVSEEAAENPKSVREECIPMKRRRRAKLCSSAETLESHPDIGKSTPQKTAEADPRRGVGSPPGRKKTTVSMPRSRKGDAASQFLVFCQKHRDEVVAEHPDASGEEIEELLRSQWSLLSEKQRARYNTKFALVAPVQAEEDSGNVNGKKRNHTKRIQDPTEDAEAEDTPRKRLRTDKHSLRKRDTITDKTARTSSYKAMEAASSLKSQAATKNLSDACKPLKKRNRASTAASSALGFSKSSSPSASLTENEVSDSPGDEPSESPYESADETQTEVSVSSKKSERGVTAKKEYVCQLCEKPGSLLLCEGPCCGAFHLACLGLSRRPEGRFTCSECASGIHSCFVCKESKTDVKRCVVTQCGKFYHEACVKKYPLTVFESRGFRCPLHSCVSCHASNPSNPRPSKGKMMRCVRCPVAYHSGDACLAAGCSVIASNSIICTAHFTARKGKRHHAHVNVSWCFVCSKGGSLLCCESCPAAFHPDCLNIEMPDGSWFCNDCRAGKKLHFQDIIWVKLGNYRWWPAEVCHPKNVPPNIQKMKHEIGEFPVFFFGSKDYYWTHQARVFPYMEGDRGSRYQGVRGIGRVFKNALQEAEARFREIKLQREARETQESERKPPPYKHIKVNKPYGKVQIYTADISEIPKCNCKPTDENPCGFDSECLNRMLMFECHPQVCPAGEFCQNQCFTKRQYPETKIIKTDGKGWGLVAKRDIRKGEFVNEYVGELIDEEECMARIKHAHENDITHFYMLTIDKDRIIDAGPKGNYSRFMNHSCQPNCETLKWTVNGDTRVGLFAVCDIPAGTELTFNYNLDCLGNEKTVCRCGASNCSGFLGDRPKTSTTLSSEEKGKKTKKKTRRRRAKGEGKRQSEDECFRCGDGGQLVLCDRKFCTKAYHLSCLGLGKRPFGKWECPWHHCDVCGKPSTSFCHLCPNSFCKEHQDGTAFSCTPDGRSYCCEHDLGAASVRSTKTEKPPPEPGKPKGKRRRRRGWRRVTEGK
# Nonstructural protein 1 = Nonstructural protein 1 (Influenza A virus, UniProt Q194T2); assay type: functional, Influenza A virus (A/California/07/2009(H1N1))
# [5] = molecular target: T3, Rac GTPase-activating protein 1 (Homo sapiens, UniProt Q9H0H5); assay: blockers of MgcRacGAP-driven Rac1 GTP hydrolysis – biochemical, ADP Hunter fluorescence, primary and confirmatory, confirmation (AID 624330); assay type: functional
# T3 sequence (Q9H0H5 whole entry): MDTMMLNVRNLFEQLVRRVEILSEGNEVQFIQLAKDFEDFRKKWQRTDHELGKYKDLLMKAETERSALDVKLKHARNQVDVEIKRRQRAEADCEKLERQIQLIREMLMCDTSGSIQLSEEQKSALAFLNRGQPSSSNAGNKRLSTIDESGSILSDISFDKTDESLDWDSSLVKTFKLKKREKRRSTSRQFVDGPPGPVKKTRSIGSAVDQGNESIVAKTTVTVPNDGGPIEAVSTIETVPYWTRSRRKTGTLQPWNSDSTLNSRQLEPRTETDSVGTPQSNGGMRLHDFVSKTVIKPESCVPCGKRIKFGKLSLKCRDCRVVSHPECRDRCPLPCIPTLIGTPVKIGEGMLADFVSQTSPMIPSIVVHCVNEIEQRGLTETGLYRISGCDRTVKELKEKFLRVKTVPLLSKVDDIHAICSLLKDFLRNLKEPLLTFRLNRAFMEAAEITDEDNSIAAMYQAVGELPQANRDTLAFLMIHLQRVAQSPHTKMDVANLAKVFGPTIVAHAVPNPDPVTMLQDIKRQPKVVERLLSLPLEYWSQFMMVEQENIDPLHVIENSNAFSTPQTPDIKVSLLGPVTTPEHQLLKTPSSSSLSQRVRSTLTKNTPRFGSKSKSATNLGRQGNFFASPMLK
# [6] = molecular target: T1, Corticotropin-releasing factor receptor 2/Corticotropin-releasing factor-binding protein; assay: Dose Response confirmation of uHTS hits for small molecule antagonists of the CRF-binding protein and CRF-R2 receptor complex.; assay type: functional; settings: read-out: IC50_Mean
# [7] = molecular target: Glutathione-S-transferase (Schistosoma japonicum, UniProt Q26513); assay: GST-antibody interaction or FRET quenching – biochemical, TR-FRET, artefact control for Vif-APOBEC3G degradation inhibitor project, dose response (AID 1117362); assay type: functional
# [8] = viability loss in THP-1 monocytes – THP-1 cells, cytotoxicity control for Vif-APOBEC3G degradation inhibitor project, dose response (AID 1117359); assay type: functional; settings: THP-1
# [9] = molecular target: T4, COUP transcription factor 2 (Homo sapiens, UniProt P24468); assay: Luminescence-based cell-based high throughput dose response assay to identify inhibitors of COUP-TFII (NR2F2).; assay type: functional;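 further: HEK293 cells transiently cotransfected with COUP-TFII expression vector and reporter; luciferase reporter luminescence driven by COUP-TFII from the pX2-168 reporter plasmid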
# T4 sequence (P24468 whole entry): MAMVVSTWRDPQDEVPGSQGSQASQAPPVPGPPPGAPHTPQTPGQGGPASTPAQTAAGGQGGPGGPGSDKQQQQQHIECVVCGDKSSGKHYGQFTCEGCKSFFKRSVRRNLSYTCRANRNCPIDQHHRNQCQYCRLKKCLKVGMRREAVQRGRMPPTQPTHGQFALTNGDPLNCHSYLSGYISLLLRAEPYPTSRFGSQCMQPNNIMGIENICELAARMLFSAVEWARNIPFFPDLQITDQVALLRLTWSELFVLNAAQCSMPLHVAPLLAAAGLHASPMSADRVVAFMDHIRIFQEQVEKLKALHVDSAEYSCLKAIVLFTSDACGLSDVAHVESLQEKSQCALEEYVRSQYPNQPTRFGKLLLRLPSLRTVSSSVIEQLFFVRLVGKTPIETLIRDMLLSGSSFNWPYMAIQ
# [10] = viability loss in HeLa cells – cytotoxicity control for MgcRacGAP inhibitor project, dose response (AID 624300); assay type: functional
# [11] = growth inhibition of PfATP4-mutant resistant parasites – NITD609-resistant line, SYBR Green, dry powder, dose response (AID 1159571); assay type: functional, cell-based;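 further: parasites synchronized at ring stage by sorbitol before testing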
# [12] = toxicity to human hepatoma HepG2 cells – cell-based, cherry-picked samples, cytotoxicity control, dose response (AID 1159577); assay type: functional
# [13] = growth inhibition of yeast DHODH-expressing 3D7 parasites – SYBR Green, dry powder samples, dose response (AID 1159570); assay type: functional, cell-based;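 further: parasite growth measured after 72 hours of compound exposure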
# [14] = Plasmodium falciparum Dd2 Sybr green parasite growth Measured in Cell-Based and Microorganism Combination System Using Plate Reader - 2153-01_Inhibitor_Dose_DryPowder_Activity_Set3.; assay type: functional
# [15] = P. falciparum Dd2 growth inhibitors, dose response, SYBR Green, cherry-picked samples (AID 1159567); assay type: functional, cell-based
# [16] = Dd2 parasite growth inhibition in erythrocytes – SYBR Green, dry powder samples, set 9, dose response (AID 1159568); assay type: functional, cell-based
# [17] = Dd2 malaria parasite growth inhibition potency – SYBR Green, dry powder samples, dose response (AID 1159566); assay type: functional, cell-based;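 further: potency for growth inhibition with lower SYBR green DNA signal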
# cells = assay type: functional, cell-based; settings: INS-1E
# [18] = rise of 2N DNA cells, HeLa – IC50, dose response (AID 1117349); assay type: functional, cell-based
# [19] = IC50 of insulin release inhibition, rat insulinoma INS-1E line, 5 mM glucose, cell-based (AID 1117331); assay type: functional
# [20] = rise of 4N DNA cells, HeLa – IC50, dose response (AID 1117351); assay type: functional, cell-based
# [21] = CellTiter-Glo luminescence survival assay, SW480 colon tumor line, concentration-response curve, half-maximal inhibitory concentration (AID 1117338); assay type: functional
# [22] = SNU-C1 cell viability reduction, dose response, CellTiter-Glo luminescence (AID 1117323); assay type: functional, cell-based
# [23] = cytotoxicity toward HCT116 cells – cell-based, CellTiter-Glo luminescence, IC50, dose response (AID 1117332); assay type: functional; settings: HCT-116
# [24] = cytotoxicity toward HT-29 cells – cell-based, CellTiter-Glo luminescence, IC50, dose response (AID 1117330); assay type: functional
# [25] = Reduced DLD-1 viability, concentration-response, CellTiter-Glo luminescence (AID 1117352); assay type: functional
# [26] = cytotoxicity toward Colo320 cells – cell-based, CellTiter-Glo luminescence, IC50, dose response (AID 1117334); assay type: functional; settings: COLO 320
# [27] = RKO cell viability reduction, dose response, CellTiter-Glo luminescence (AID 1117322); assay type: functional
# [28] = Dd2 parasite growth inhibition in erythrocytes – SYBR Green, dry powder samples, set 4, dose response (AID 1159572); assay type: functional, cell-based
# [29] = toxicity to human HepG2 hepatoma cells – cell-based, plate reader, dry powder samples, cytotoxicity control, dose response (AID 1159569); assay type: functional;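 further: inhibitor potency with signal falling toward the positive control level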
# Protein Tat = Protein Tat (Human immunodeficiency virus type 1 group M subtype B (isolate HXB2)(HIV-1), UniProt P04608); assay type: functional;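 further: tat binding to TAR RNA read out by fluorescence polarization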
# Chain of Protein Tat (P04608 whole entry): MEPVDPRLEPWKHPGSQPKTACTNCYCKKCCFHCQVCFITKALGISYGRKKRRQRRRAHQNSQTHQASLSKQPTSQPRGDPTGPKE
# Chain of Oxysterols receptor LXR-beta (P55055 whole entry, the tested form may be a part): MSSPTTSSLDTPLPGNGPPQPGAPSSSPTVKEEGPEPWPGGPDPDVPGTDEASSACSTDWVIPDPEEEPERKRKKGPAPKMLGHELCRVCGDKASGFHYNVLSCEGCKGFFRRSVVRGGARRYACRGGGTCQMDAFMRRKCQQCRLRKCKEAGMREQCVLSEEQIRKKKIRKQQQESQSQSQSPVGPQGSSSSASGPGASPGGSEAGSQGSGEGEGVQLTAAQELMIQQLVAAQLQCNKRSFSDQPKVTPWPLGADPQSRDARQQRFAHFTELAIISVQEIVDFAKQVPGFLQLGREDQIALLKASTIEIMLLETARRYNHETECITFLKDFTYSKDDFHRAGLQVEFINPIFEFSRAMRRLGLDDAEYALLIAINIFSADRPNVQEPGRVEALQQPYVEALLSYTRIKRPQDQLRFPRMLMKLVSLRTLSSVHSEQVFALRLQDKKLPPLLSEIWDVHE
# Chain of Glutathione-S-transferase (Q26513 whole entry): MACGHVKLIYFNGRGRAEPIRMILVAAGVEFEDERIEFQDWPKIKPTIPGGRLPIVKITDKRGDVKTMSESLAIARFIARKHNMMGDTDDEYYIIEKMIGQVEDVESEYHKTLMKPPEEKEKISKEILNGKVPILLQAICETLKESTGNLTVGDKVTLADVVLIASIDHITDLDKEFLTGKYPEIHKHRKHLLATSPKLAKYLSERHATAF
# Chain of Nonstructural protein 1 (Q194T2 whole entry): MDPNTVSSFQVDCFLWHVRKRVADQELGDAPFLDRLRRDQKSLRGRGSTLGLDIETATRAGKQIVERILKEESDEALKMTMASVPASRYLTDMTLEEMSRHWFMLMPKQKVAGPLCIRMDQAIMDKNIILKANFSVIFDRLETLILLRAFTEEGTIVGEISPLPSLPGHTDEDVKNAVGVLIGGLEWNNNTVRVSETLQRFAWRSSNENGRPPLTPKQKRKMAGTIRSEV
structure (smiles),measurement,setting,value
O=C(NCc1cccs1)c1cccc2c(-c3ccc(F)c(F)c3)coc12,EC50,[1],> 67.5 µM (inactive)
same,IC50,[2],> 67.5 µM (inactive)
Cc1cc2c(=Cc3ccc(N(C)C)cc3)c3ccccc3n2[n+]1C,EC50,[3],> 53 µM (inactive)
same,AC50,[4],17.6 µM (active)
same,IC50,Nonstructural protein 1,20.9 µM (active)
same,IC50,[5],45.4 µM (active)
same,IC50,[6],> 47.1 µM (inactive)
same,IC50,[7],7.36 µM (active)
same,CC50,[8],1.02 µM (active)
same,IC50,[9],3.87 µM (active)
same,CC50,[10],18.5 µM (active)
CCCNC(=O)N1[C@H](C#N)[C@H](c2ccc(-c3ccccc3F)cc2)[C@H]1CO,AC50,[11],0.0114 µM (active)
same,AC50,[12],> 42 µM (inactive)
same,AC50,[13],14.9 µM (active)
same,AC50,[14],0.0589 µM (active)
same,AC50,[15],< 0.35 µM (active)
same,AC50,[16],0.0988 µM (active)
same,AC50,[17],0.00986 µM (active)
CC(CC1c2ccccc2CCc2ccccc21)CN(C)C (stereo unspecified) [BUTRIPTYLINE],IC50,cells,> 33.3 µM (inactive)
same,IC50,[18],> 10 µM (inactive)
same,IC50,[19],3.64 µM (active)
same,IC50,[20],> 10 µM (inactive)
CCCCCCOc1ccccc1C(N)=O [EXALAMIDE],IC50,[21],> 20 µM (inactive)
same,IC50,[22],9.36 µM (inactive)
same,IC50,[23],> 6.67 µM (inactive)
same,IC50,[24],> 20 µM (inactive)
same,IC50,[25],8.67 µM (inactive)
same,IC50,[26],> 20 µM (inactive)
same,IC50,[27],> 6.67 µM (inactive)
COc1ccc2c3c([nH]c2c1)[C@H](CO)N(C(C)=O)CC31CCN(S(=O)(=O)c2cccs2)CC1,AC50,[28],8.2 µM (active)
CO[C@@H]1CN(C)C(=O)c2cc(NC(=O)Nc3ccc(C(F)(F)F)cc3)ccc2OC[C@H](C)NC[C@H]1C,AC50,[11],3.24 µM (active)
same,AC50,[13],1.61 µM (active)
same,AC50,[15],2.01 µM (active)
same,AC50,[17],2.28 µM (active)
same,AC50,[29],19.3 µM (active)
COc1ccccc1NC(=O)CN(Cc1ccco1)C(=O)c1cccs1,IC50,Protein Tat,> 100 µM (inconclusive)
